Source: US20090163490A1, “Pyrrolopyrimidine Derivatives Used As HSP90 Inhibitors” (VERNALIS (R&D) LTD., priority 2006, published 2009)
Where two headings read alike, the source gives them in different places.

Molecular target: T1, human full-length HSP90 (Homo sapiens, UniProt P08238)
T1 construct: E. coli expressed human full-length HSP90 protein, purified >95%; made in house; host or cells: E. coli
Test: Fluorescence polarization (FP) binding assay
Details: competitive displacement of fluorescein-labelled probe from human full-length HSP90, activity range
From the text: Fluorescence Polarization Assay
Fluorescence polarization {also known as fluorescence anisotropy} measures the rotation of a fluorescing species in solution, where the larger molecule the more polarized the fluorescence emission. When the fluorophore is excited with polarized light, the emitted light is also polarized. The molecular size is proportional to the polarization of the fluorescence emission.
The fluoroscein-labelled probe—
binds to HSP90 {full-length human, full-length yeast or N-terminal domain HSP90} and the anisotropy {rotation of the probe:protein complex} is measured.
Test compound is added to the assay plate, left to equilibrate and the anisotropy measured again. Any change in anisotropy is due to competitive binding of compound to HSP90, thereby releasing probe.
Stored at room temperature. • 3) BSA (bovine serum albumen) 10 mg/ml (New England Biolabs # B9001S) • 4) 20 mM probe in 100% DMSO stock concentration. Stored in the dark at RT. Working concentration is 200 nM diluted in AR water and stored at 4° C.
• 1) Add 100 μl×buffer to wells 1A and 12A(=FP BLNK) • 2) Prepare assay mix—all reagents are kept on ice with a lid on the bucket as the probe is light-sensitive.
• 3) Aliquot 100 μl assay mix to all other wells • 4) Seal plate and leave in dark at room temp for 20 minutes to equilibrate
This gives 2.5 mM {50×} stock cpd−assuming cpds 20 mM. • 4) Repeat for wells A2 to A10. Control in columns 11 and 12. • 5) Transfer 5 μl from row A to row B—not column 12. Mix well. • 6) Transfer 5 μl from row B to row C. […] Add 2 μl of 100 mM standard cpd to wells B12-H12 {is positive control} • 13) The Z′ factor is calculated from zero controls and positive wells.

[1] = read-out: activity in the fluorescence polarization assay
[2] = read-out: ACTIVITY* (Activity in the FP binding assay)

T1 sequence (P08238 whole entry): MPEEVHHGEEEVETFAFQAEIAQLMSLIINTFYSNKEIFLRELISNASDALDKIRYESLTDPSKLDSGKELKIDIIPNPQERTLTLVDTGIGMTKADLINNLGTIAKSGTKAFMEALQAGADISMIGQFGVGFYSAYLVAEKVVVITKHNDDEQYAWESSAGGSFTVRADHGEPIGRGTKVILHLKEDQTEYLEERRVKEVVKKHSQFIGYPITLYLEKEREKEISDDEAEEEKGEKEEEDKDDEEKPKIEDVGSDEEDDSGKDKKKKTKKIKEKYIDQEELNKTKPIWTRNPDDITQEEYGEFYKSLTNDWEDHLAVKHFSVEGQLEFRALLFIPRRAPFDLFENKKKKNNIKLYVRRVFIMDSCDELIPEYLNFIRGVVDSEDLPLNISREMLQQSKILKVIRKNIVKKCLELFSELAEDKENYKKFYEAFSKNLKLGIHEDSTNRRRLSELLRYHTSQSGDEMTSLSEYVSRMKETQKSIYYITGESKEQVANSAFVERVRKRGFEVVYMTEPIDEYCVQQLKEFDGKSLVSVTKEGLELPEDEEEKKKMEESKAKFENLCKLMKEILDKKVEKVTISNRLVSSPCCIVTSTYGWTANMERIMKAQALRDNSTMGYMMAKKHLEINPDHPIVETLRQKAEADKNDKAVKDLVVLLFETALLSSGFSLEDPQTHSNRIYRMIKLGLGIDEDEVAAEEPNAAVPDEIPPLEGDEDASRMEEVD

Compound	IC50 [1] [nM]	IC50 [2] [nM]
COc1cc(-c2nc(SC)nc3[nH]cc(C#N)c23)c(Cl)cc1C#N [Example 42, 4-(2-Chloro-4-cyano-5-methoxy)-2-methylsulfanyl-7H-pyrrolo[2,3-d]pyrimidine-5-carbonitrile]	< 500	–
CSc1nc(-c2ccc3c(c2)OCCO3)c2c(C#N)c[nH]c2n1 [Example 43, 4-(2,3-Dihydro-benzo[1,4]dioxin-6-yl)-2-methylsulfanyl-7H-pyrrolo[2,3-d]pyrimidine-5-carbonitrile]	> 10000	–
COc1ccc(-c2nc(SC)nc3[nH]cc(C#N)c23)cc1OC [Example 44, 4-(Dimethoxy-phenyl)-2-methylsulfanyl-7H-pyrrolo[2,3-d]pyrimidine-5-carbonitrile]	< 500	–
CCN(CC)CCOc1cc(-c2nc(SC(C)C)nc3[nH]cc(C#N)c23)c(Cl)cc1OC [Example 45, 4-[2-Chloro-5-(2-diethylamino-ethoxy)-4-methoxy-phenyl]-2-isopropylsulfanyl-7H-pyrrolo[2,3-d]pyrimidine-5-carbonitrile]	< 500	–
CCN(CC)CC[S+]([O-])c1nc(-c2cc(OC)c(OC)cc2Cl)c2c(C#N)c[nH]c2n1 (centres unmarked) [Example 46, 4-(2-Chloro-4,5-dimethoxy-phenyl)-2-(2-diethylamino-ethanesulfinyl)-7H-pyrrolo[2,3-d]pyrimidine-5-carbonitrile]	500 to 10000	–
COc1cc(Cl)c(-c2nc([S+](C)[O-])nc3[nH]cc(C#N)c23)cc1OC (centres unmarked) [Example 47]	500 to 10000	–
COc1cc(Cl)c(-c2nc(S(C)(=O)=O)nc3[nH]cc(C#N)c23)cc1OC [Example 48, 4-(2-Chloro-4,5-dimethoxy-phenyl)-2-methanesulfonyl-7H-pyrrolo[2,3-d]pyrimidine-5-carbonitrile]	500 to 10000	–
CCOC(=O)CSc1nc(-c2cc(OCCN3CCC(F)(F)C3)c(OC)cc2Cl)c2c(C#N)c[nH]c2n1 [Example 49, (4-{2-Chloro-5-[2-(3,3-difluoro-pyrrolidin-1-yl)-ethoxy]-4-methoxy-phenyl}-5-cyano-7H-pyrrolo[2,3-d]pyrimidin-2-ylsulfanyl)-acetic Acid Ethyl Ester]	< 500	–
COc1cc(Cl)c(-c2nc(SCC(=O)O)nc3[nH]cc(C#N)c23)cc1OCCN1CCC(F)(F)C1 [Example 50, (4-{2-Chloro-5-[2-(3,3-difluoro-pyrrolidin-1-yl)-ethoxy]-4-methoxy-phenyl}-5-cyano-7H-pyrrolo[2,3-d]pyrimidin-2-ylsulfanyl)-acetic Acid]	< 500	–
N#Cc1c[nH]c2nc(OCCN3CCC(F)(F)CC3)nc(-c3cc(OCc4ccccc4)c(Cl)cc3Cl)c12 [Example 52]	–	500 to 10000
CCN(CC)CCOc1nc(-c2ccc(OC)c(OC)c2)c2c(C#N)c[nH]c2n1 [Example 53]	–	500 to 10000
CSc1nc(-c2cc(OCc3ccccc3)c(Cl)cc2Cl)c2c(C#N)c[nH]c2n1 [Example 54]	–	500 to 10000
COc1cc(-c2nc(SC)nc3[nH]cc(C#N)c23)ccc1C#N [Example 55]	–	500 to 10000
CCN(CC)CCOc1nc(-c2cc(OC)c(OC)cc2Cl)c2c(C#N)c[nH]c2n1 [Example 56]	–	< 500
COc1cc(Cl)c(-c2nc(OCCCN3CCCC3=O)nc3[nH]cc(C#N)c23)cc1OC [Example 57]	–	< 500
COc1cc(Cl)c(-c2nc(OCCN3CC[C@H](F)C3)nc3[nH]cc(C#N)c23)cc1OC [Example 58]	–	< 500
CCN(CC)CCCOc1nc(-c2cc(OC)c(OC)cc2Cl)c2c(C#N)c[nH]c2n1 [Example 59]	–	< 500
COc1cc(Cl)c(-c2nc(OCCCN3CCOCC3)nc3[nH]cc(C#N)c23)cc1OC [Example 60]	–	< 500
COc1cc(Cl)c(-c2nc(OCCN3CCOCC3)nc3[nH]cc(C#N)c23)cc1OC [Example 61]	–	< 500
COc1cc(-c2nc(OCCN3CCCC(F)(F)C3)nc3[nH]cc(C#N)c23)c(Cl)cc1C#N [Example 62]	–	< 500
COc1cc(-c2nc(OCCN3CCCC(F)C3)nc3[nH]cc(C#N)c23)c(Cl)cc1C#N (centres unmarked) [Example 63]	–	< 500
COc1cc(Cl)c(-c2nc(SC)nc3[nH]cc(C#N)c23)cc1OCCN1CCC(F)(F)CC1 [Example 64]	–	< 500
COc1cc(Cl)c(-c2nc(OCCN3CC[C@@H](F)C3)nc3[nH]cc(C#N)c23)cc1OC [Example 65]	–	< 500
COc1cc(Cl)c(-c2nc(SC)nc3[nH]cc(C#N)c23)cc1OCCN1CCCC(F)(F)C1 [Example 66]	–	< 500
CCc1nc(-c2cc(OCCN(CC)CC)c(OC)cc2Cl)c2c(C#N)c[nH]c2n1 [Example 67]	–	< 500

Compound	IC50 [1] [nM]	IC50 [2] [nM]
CCN(CC)CCOc1cc(-c2nc(SC(C)C)nc3[nH]cc(C#N)c23)c(Cl)cc1OC [Example 68]	–	< 500
CCN(CC)CCNc1nc(-c2cc(OC)c(OC)cc2Cl)c2c(C#N)c[nH]c2n1 [Example 69]	–	500 to 10000
COc1cc(Cl)c(-c2nc(C(C)C)nc3[nH]cc(C#N)c23)cc1OC [Example 70]	–	500 to 10000
COc1cc(Cl)c(-c2nc(OCCN3CCC(F)CC3)nc3[nH]cc(C#N)c23)cc1OC [Example 71]	–	< 500
COc1cc(Cl)c(-c2nc(SC)nc3[nH]cc(C#N)c23)cc1OCCN1CC[C@H](F)C1 [Example 73]	–	< 500
COc1cc(Cl)c(-c2nc(SC)nc3[nH]cc(C#N)c23)cc1OCCN1CCC(F)(F)C1 [Example 74]	–	< 500
COc1cc(Cl)c(-c2nc(SC(C)C)nc3[nH]cc(C#N)c23)cc1OCCN1CCC(F)(F)C1 [Example 75]	–	< 500
COc1cc(Cl)c(-c2nc(SC(C)C)nc3[nH]cc(C#N)c23)cc1OCCN1CCC(F)(F)CC1 [Example 76]	–	< 500
CSc1nc(-c2cc3c(cc2Cl)OCO3)c2c(C#N)c[nH]c2n1 [Example 77]	–	< 500
COc1cc(Cl)c(-c2nc(SC(C)(C)C)nc3[nH]cc(C#N)c23)cc1OCCN1CC[C@@H](F)C1 [Example 78]	–	< 500
CCN(CC)CCOc1cc(-c2nc(OC(C)C)nc3[nH]cc(C#N)c23)c(Cl)cc1OC [Example 79]	–	< 500
CCN(CC)CCOc1cc(-c2nc(OC3CCCC3)nc3[nH]cc(C#N)c23)c(Cl)cc1OC [Example 80]	–	< 500
CCN(CC)CCOc1cc(-c2nc(SC3CCCC3)nc3[nH]cc(C#N)c23)c(Cl)cc1OC [Example 81]	–	< 500
CCN(CC)CCOc1cc(-c2nc(CC(C)C)nc3[nH]cc(C#N)c23)c(Cl)cc1OC [Example 82]	–	500 to 10000
COc1cc(Cl)c(-c2nc(SC(C)CN3CCC(F)(F)C3)nc3[nH]cc(C#N)c23)cc1OC (centres unmarked) [Example 83]	–	< 500
COc1cc(Cl)c(-c2nc(Sc3ccccc3)nc3[nH]cc(C#N)c23)cc1OC [Example 84]	–	< 500
COc1cc(Cl)c(-c2nc(Sc3nccs3)nc3[nH]cc(C#N)c23)cc1OC [Example 85]	–	< 500
COc1cc(Cl)c(-c2nc(Oc3ccccc3)nc3[nH]cc(C#N)c23)cc1OC [Example 86]	–	< 500
COc1cc(Cl)c(-c2nc(Cc3ccccc3)nc3[nH]cc(C#N)c23)cc1OC [Example 87]	–	< 500
CCOC(=O)C(C)Sc1nc(-c2cc(OCCN3CCC(F)(F)C3)c(OC)cc2Cl)c2c(C#N)c[nH]c2n1 (centres unmarked) [Example 88]	–	< 500
COc1cc(Cl)c(-c2nc(SC(C)C(=O)O)nc3[nH]cc(C#N)c23)cc1OCCN1CCC(F)(F)C1 (centres unmarked) [Example 89]	–	< 500
COc1cc(Cl)c(-c2nc(SC(C)(C)CN3CCC(F)(F)C3)nc3[nH]cc(C#N)c23)cc1OC [Example 90]	–	< 500
COc1cc(Cl)c(-c2nc(Sc3nccn3C)nc3[nH]cc(C#N)c23)cc1OC [Example 91]	–	500 to 10000
CCN(CC)CCOc1cc(-c2nc(Sc3nccs3)nc3[nH]cc(C#N)c23)c(Cl)cc1OC [Example 92]	–	< 500
CSc1nc(C(=O)N2Cc3ccccc3C2)c2c(C#N)c[nH]c2n1 [Example 93, 4-(1,3-Dihydro-isoindole-2-carbonyl)-2-methylsulfanyl-7H-pyrrolo[2,3-d]pyrimidine-5-carbonitrile]	500 to 10000	–
